In brackets after ≈: the same amount, converted by molar mass. Activity calls are given as the source filed them. The calls are words filed in the database; no cut-off is given here.
What was measured:
Acinetobacter baumannii [1] = test: Antibacterial activity against wild type Acinetobacter baumannii ATCC 17978 by checkerboard assay; type: functional
Acinetobacter baumannii [2] = test: Antibacterial activity against novobiocin and test compound-resistant Acinetobacter baumannii ATCC 17978 mutant generated from seven serial passages in presence of novobiocin by checkerboard assay; type: functional
Acinetobacter baumannii [3] = test: Antibacterial activity against novobiocin-resistant Acinetobacter baumannii ATCC 17978 mutant generated from seven serial passages by checkerboard assay; type: functional
Acinetobacter baumannii [4] = test: Antibacterial activity against wild type Acinetobacter baumannii ATCC 17978 assessed as resistant development at sub-MIC measured after 7 days of passaging by microbroth dilution method relative to control; type: functional
Acinetobacter baumannii [5] = test: Antibacterial activity against colistin-resistant Acinetobacter baumannii ATCC 17978 mutant generated from seven serial passages by checkerboard assay; type: functional
Acinetobacter baumannii [6] = test: Antibacterial activity against wild type Acinetobacter baumannii ATCC 17978 assessed as resistant development at sub-MIC measured after 3 days of passaging by microbroth dilution method relative to control; type: functional
Enterococcus faecium = test: Antibacterial activity against Enterococcus faecium ATCC 27270; type: functional
[7] = Toxicity in Galleria mellonella larvae MDR Acinetobacter baumannii isolate assessed as mortality at 100 mg/kg measured after 24 hrs relative to control; type: ADME, organism-based; conditions: in vivo, read-out: Activity
Escherichia coli = test: Bactericidal activity against Escherichia coli ATCC […] at 50.4 uM in LB media after 24 hrs by time-kill assay; type: functional, organism-based
Klebsiella pneumoniae = test: Bacteriostatic activity against Klebsiella pneumoniae 116381 at 50.4 uM in LB media after 24 hrs by time-kill assay; type: functional
Acinetobacter baumannii [8] = test: Antibacterial activity against wild type Acinetobacter baumannii ATCC 17978 assessed as resistant development at sub-MIC measured after 5 days of passaging by microbroth dilution method relative to control; type: functional
[9] = test system: Staphylococcus epidermidis; test: Antibacterial activity against methicillin-resistant Staphylococcus epidermidis 61589; type: functional
Acinetobacter baumannii [10] = test: Bacteriostatic activity against Acinetobacter baumannii ATCC 17978 at 50.4 uM in LB media after 24 hrs by time-kill assay; type: functional, organism-based
Staphylococcus aureus = test: Antibacterial activity against methicillin-resistant Staphylococcus aureus ATCC 33592; type: functional
Pseudomonas aeruginosa = test: Bacteriostatic activity against Pseudomonas aeruginosa PAO1 at 50.4 uM in LB media after 24 hrs by time-kill assay; type: functional, organism-based

## COLISTIN
Acinetobacter baumannii [1]
  MIC: 0.063 µg/mL
Acinetobacter baumannii [2]
  MIC: 0.031 µg/mL
Acinetobacter baumannii [3]
  MIC: 8 µg/mL
Acinetobacter baumannii [4]
  fold change (FC): 1024
Acinetobacter baumannii [5]
  MIC: 1020 µg/mL

## CO[C@@H]1[C@@H](OC(N)=O)[C@@H](O)[C@H](Oc2ccc3c(O)c(NC(=O)c4ccc(O)c(CC=C(C)C)c4)c(=O)oc3c2C)OC1(C)C [NOVOBIOCIN]
Acinetobacter baumannii [6]
  fold change (FC): 64
Acinetobacter baumannii [1]
  MIC: 16 µg/mL
Enterococcus faecium
  MIC: 2 µg/mL (≈ 3.26 µM)
Acinetobacter baumannii [2]
  MIC: 128 µg/mL
Acinetobacter baumannii [3]
  MIC: 2050 µg/mL
[7]
  mortality at 24 h: 100%
Escherichia coli
  Activity: Active
Klebsiella pneumoniae
  Activity: -1.87 CFU/ml
Acinetobacter baumannii [8]
  fold change (FC): 256
[9]
  MIC: 0.0625 µg/mL (≈ 0.102 µM)
Acinetobacter baumannii [10]
  Activity: Active
Acinetobacter baumannii [5]
  MIC: < 0.031 µg/mL
Staphylococcus aureus
  MIC: 0.125 µg/mL (≈ 0.204 µM)
Pseudomonas aeruginosa
  Activity: Active
